± gives the standard deviation of the averaged measurements.
Experiments:
U-2 OS [1] = assay: AUC of culture confluence over time (live-cell imaging) (AUC (confluence % x time)); higher = more confluent culture (less growth inhibition)
Description: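 Live-cell Incucyte imaging of U-2 OS cells in F-12K medium. Compounds were tested mostly at 5, 10 and 20 uM, and cells were imaged every 4 h for up to 60 h. Value is the area under the curve of phase-contrast confluence over time.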

U-2 OS [2] = assay: cell painting activity score (Mahalanobis distance from DMSO wells); higher = stronger morphological phenotype; details: 24 h
Description: (§1)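 Cell painting in U-2 OS cells (384-well, about 1,500 cells per well), compound exposure 24 h, usually six 2-fold concentrations from 20 to 0.625 uM (some compounds higher or lower). Relative cell count is the cell number per well relative to DMSO wells. Activity score is the Mahalanobis distance of the morphological profile from DMSO control wells. Mean of four technical replicate plates.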

U-2 OS [3] = assay: relative cell count vs DMSO (cell painting) (fraction of DMSO control); higher = more cells remaining (less cytotoxic); details: 24 h
Description: as §1

Row | SMILES | AUC of culture confluence over time (U-2 OS [1]; 5 µM) | AUC of culture confluence over time (U-2 OS [1]; 10 µM) | AUC of culture confluence over time (U-2 OS [1]; 20 µM) | cell painting activity score (U-2 OS [2]; 0.625 µM) | cell painting activity score (U-2 OS [2]; 1.25 µM) | cell painting activity score (U-2 OS [2]; 2.5 µM) | cell painting activity score (U-2 OS [2]; 5 µM) | cell painting activity score (U-2 OS [2]; 10 µM) | cell painting activity score (U-2 OS [2]; 20 µM) | relative cell count (U-2 OS [3]; 0.625 µM) | relative cell count (U-2 OS [3]; 1.25 µM) | relative cell count (U-2 OS [3]; 2.5 µM) | relative cell count (U-2 OS [3]; 5 µM) | relative cell count (U-2 OS [3]; 10 µM) | relative cell count (U-2 OS [3]; 20 µM) | AUC of culture confluence over time (U-2 OS [1]; 1.25 µM) | cell painting activity score (U-2 OS [2]; 0.019532 µM) | cell painting activity score (U-2 OS [2]; 0.07812 µM) | cell painting activity score (U-2 OS [2]; 0.3124 µM) | relative cell count (U-2 OS [3]; 0.019532 µM) | relative cell count (U-2 OS [3]; 0.07812 µM) | relative cell count (U-2 OS [3]; 0.3124 µM)
1 | CC[C@H](C)[C@@H]1NC(=O)CNC(=O)[C@@H]2Cc3c([nH]c4cc(O)ccc34)S(=O)C[C@H](NC(=O)CNC1=O)C(=O)N[C@@H](CC(=O)O)C(=O)N1C[C@H](O)C[C@H]1C(=O)N[C@@H]([C@@H](C)[C@@H](O)CO)C(=O)N2 (stereo not given in full) | 26.4 | 24.6 | 16.3 | 5.47 | 4.77 | 6.25 | 4.42 | 11.2 | 29.1 | 0.979 | 0.941 | 0.975 | 0.992 | 0.958 | 0.862 |  |  |  |  |  |  | 
2 | O=C1O[C@H]2[C@@H]3OC(=O)c4cc(O)c(O)c(O)c4-c4c(O)c(O)c5oc(=O)c6c(c(O)c(O)c7oc(=O)c4c5c76)-c4c(cc(O)c(O)c4O)C(=O)OC[C@H]3OC(O)[C@@H]2OC(=O)c2cc(O)c(O)c(O)c2-c2c1cc(O)c(O)c2O (stereo not given in full) | 47.1 | 42.3 | 38.4 | 5.43 | 7.35 | 6.54 | 7.71 | 7.7 | 12.5 | 1.01 | 1 | 1.04 | 1.02 | 0.968 | 0.808 |  |  |  |  |  |  | 
3 | Nc1c[n+](N2CCOCC2)no1.[Cl-] | 49.4 | 49.9 | 48.7 | 6.05 | 6.1 | 9.31 | 10.9 | 12.9 | 15.2 | 0.896 | 0.814 | 0.739 | 0.578 | 0.503 | 0.489 |  |  |  |  |  |  | 
4 | C/C(=C\c1csc(C)n1)[C@@H]1C[C@@H]2O[C@]2(C)CCC[C@H](C)[C@H](O)[C@@H](C)C(=O)C(C)(C)[C@@H](O)CC(=O)O1 | 21.8 | 21.4 | 21.2 | 21.1 | 20.7 | 22.7 | 22.5 | 23.6 | 23.9 | 0.22 | 0.223 | 0.284 | 0.468 | 0.553 | 0.521 |  |  |  |  |  |  | 
5 | NC(=O)c1ccc(I)c([N+](=O)[O-])c1 | 56.5 | 53.5 | 50.1 | 3.13 | 3.07 | 2.86 | 3.68 | 3.09 | 3.55 | 1.01 | 1.07 | 1.05 | 1.04 | 1.06 | 1.07 |  |  |  |  |  |  | 
6 | O=C(CBr)N1CC([N+](=O)[O-])([N+](=O)[O-])C1 | 50 | 49.9 | 42.4 | 6.87 | 7.38 | 11.3 | 10.6 | 11.8 | 11.3 | 0.992 | 1.02 | 0.919 | 0.891 | 0.972 | 0.873 |  |  |  |  |  |  | 
7 | O=C(OC[C@H]1O[C@@H](OC(=O)c2cc(O)c(O)c(OC(=O)c3cc(O)c(O)c(O)c3)c2)[C@H](OC(=O)c2cc(O)c(O)c(OC(=O)c3cc(O)c(O)c(O)c3)c2)[C@@H](OC(=O)c2cc(O)c(O)c(OC(=O)c3cc(O)c(O)c(O)c3)c2)[C@@H]1OC(=O)c1cc(O)c(O)c(OC(=O)c2cc(O)c(O)c(O)c2)c1)c1cc(O)c(O)c(OC(=O)c2cc(O)c(O)c(O)c2)c1 | 48.2 | 48.5 | 27.9 | 4.17 | 4.59 | 6.15 | 5.91 | 6.39 | 8.09 | 1.02 | 1.02 | 1.02 | 0.945 | 0.945 | 0.697 |  |  |  |  |  |  | 
8 | CC1OC2=C(C(=O)C(=O)c3ccccc32)C1(C)C (stereo not given) | 19.5 | 18.5 | 16 | 15 | 17.1 | 20.7 | 25.1 | 33.8 | 34.2 | 0.845 | 0.561 | 0.299 | 0.207 | 0.14 | 0.134 |  |  |  |  |  |  | 
9 | O=NN(CCCl)C(=O)NCCCl | 44.8 | 47.8 | 42.3 | 4.49 | 4.2 | 5.44 | 4.8 | 6.45 | 8.52 | 1.01 | 0.934 | 0.932 | 0.946 | 0.929 | 0.856 |  |  |  |  |  |  | 
10 | COC(=O)[C@@]12OC[C@]34[C@H]([C@@H](O)[C@@H]1O)[C@@]1(C)CC(=O)C(O)=C(C)[C@@H]1C[C@H]3OC(=O)[C@H](OC(=O)CC(C)C)[C@@H]24 | 14.4 | 12.2 | 13.9 | 15.1 | 15.9 | 16.9 | 17.5 | 18.1 | 17.9 | 0.469 | 0.475 | 0.461 | 0.47 | 0.397 | 0.365 |  |  |  |  |  |  | 
11 | C[n+]1ccc(-c2cc[n+](CCCCCCCCCC[P+](c3ccccc3)(c3ccccc3)c3ccccc3)cc2)cc1.[I-].[I-].[I-] | 45.2 | 40 | 37.1 | 3.81 | 4.65 | 5.16 | 5.04 | 3.72 | 4.7 | 0.908 | 0.96 | 1 | 1.01 | 0.965 | 0.969 |  |  |  |  |  |  | 
12 | COc1ccc(/C=C/C(=O)O[C@@H]2[C@H](O[C@@H]3O[C@@H](C)[C@H](O)[C@@H](O)[C@H]3O)[C@@H](O[C@@H]3O[C@@H](C)[C@H](O[C@@H]4OC[C@@H](O[C@@H]5O[C@H](CO)[C@H](O)[C@H](O)[C@H]5O)[C@H](O)[C@H]4O)[C@@H](O)[C@H]3O)[C@H](OC(=O)[C@]34CCC(C)(C)C[C@H]3C3=CC[C@@H]5[C@@]6(C)C[C@H](O)[C@H](O[C@@H]7O[C@H](CO)[C@@H](O)[C@H](O)[C@H]7O)[C@@](C)(C(=O)O)[C@@H]6CC[C@@]5(C)[C@]3(CO)CC4)O[C@@H]2C)cc1 | 43.7 | 44.3 | 14.2 | 8.17 | 11.2 | 12.4 | 9.11 | 10.1 | 37.6 | 1.07 | 0.975 | 0.938 | 0.66 | 0.252 | 0.035 |  |  |  |  |  |  | 
13 | Nc1ncn([C@H]2C[C@H](O)[C@@H](CO)O2)c(=O)n1 | 45.9 | 35.4 | 37.9 | 6.05 | 6.95 | 6.26 | 6.61 | 5.82 | 5.8 | 0.973 | 0.985 | 0.966 | 0.935 | 0.915 | 0.918 |  |  |  |  |  |  | 
14 | C[C@@H]1Cc2c(Cl)cc(C(=O)N[C@@H](Cc3ccccc3)C(=O)O)c(O)c2C(=O)O1 | 40.8 | 30.3 | 17.7 | 3.03 | 4 | 4.76 | 5.78 | 10.6 | 16.6 | 1 | 0.998 | 0.979 | 0.954 | 0.805 | 0.503 |  |  |  |  |  |  | 
15 | O=C(O)C[C@@H]1C(=O)O[C@H]2[C@@H]3OC(=O)c4cc(O)c(O)c(O)c4-c4c(cc(O)c(O)c4O)C(=O)OC[C@H]2O[C@@H](OC(=O)c2cc(O)c(O)c(O)c2)[C@@H]3OC(=O)c2cc(O)c(O)c3c2[C@H]1[C@H](O)C(=O)O3 | 45.6 | 45.4 | 41.8 | 3.42 | 3.94 | 4.16 | 5.6 | 5.3 | 8.86 | 1.01 | 1 | 1.06 | 1.04 | 1.05 | 1.05 |  |  |  |  |  |  | 
16 | O=c1cc(N2CCOCC2)oc2c(-c3ccccc3)cccc12 | 42.2 | 40.7 | 31.5 | 3.52 | 4.47 | 4.5 | 5.36 | 6.81 | 9.26 | 1.02 | 0.978 | 0.971 | 0.962 | 1 | 0.948 |  |  |  |  |  |  | 
17 | CC(=O)O[C@H]1C(=O)[C@@]2(C)[C@H]([C@H](OC(=O)c3ccccc3)[C@]3(O)C[C@H](OC(=O)[C@H](O)[C@@H](NC(=O)c4ccccc4)c4ccccc4)C(C)=C1C3(C)C)[C@]1(OC(C)=O)CO[C@@H]1C[C@@H]2O | 17.4 |  | 20 |  | 24.9 ± 1.2 |  | 23.3 ± 0.75 |  | 24.1 ± 0.87 |  | 0.253 ± 0.051 |  | 0.222 ± 0.03 |  | 0.351 ± 0.024 | 17 | 16.9 ± 1.5 | 19 ± 0.57 | 22.1 ± 1.1 | 0.939 ± 0.12 | 0.744 ± 0.19 | 0.413 ± 0.16
18 | COc1ccc2c(c[n+](C)c3c4cc5c(cc4ccc23)OCO5)c1OC | 46.8 | 41 | 11.4 | 5.1 | 3.72 | 14.6 | 14.5 | 13.8 | 16.2 | 0.994 | 1.03 | 1.01 | 0.982 | 0.695 | 0.0282 |  |  |  |  |  |  | 
